Data as given in patent US6873914B2, “Methods and systems for analyzing complex biological systems” (Icoria, Inc., priority 2001, dated 2005).
“Also recorded” adds a separate entry of the source.

Tests used:
Arabidopsis thaliana [1] = assay: MOA1 gene expression profiling (22,000 gene array) of treated Arabidopsis; format: in vivo; conditions: for No. of Lethal Genes Altered: regulated genes identified as essential for plant growth and development (internal database); for gene expression perturbations compared to the other treatments: MOA1, 1 hr
Arabidopsis thaliana [2] = assay: MOA1 biochemical (metabolite) profiling by LC-MS and GC-MS of treated Arabidopsis; conditions: after one hour
Magnaporthe grisea = format: cell-based
[3] = test system: Arabidopsis thaliana plants; assay: SOA1 phenotypic analysis of herbicide-treated Arabidopsis plants; format: in vivo; conditions: for characteristic symptoms (morphological phenotype): in words; for Symptom Class: Arabidopsis sprayed with herbicide, phenotypes of the classes pictured in FIG. 12; for leafCurling (Dev.) / leafTwisting (Dev.) / leafWidth (Dev.) / matureLeafAnthocyanins (Dev.) / matureLeafChlorosis (Dev.) / matureLeafNecrosis (Dev.) / newLeafAnthocyanins (Dev.) / newLeafChlorosis (Dev.) / newLeafNecrosis (Dev.) / pointedLeaves (Dev.): numeric value standardized to mock treated plants; for tMic (Dev.): score for time required to exhibit full range of symptoms at the MIC
[4] = test system: Saccharomyces cerevisiae wild type strain BY4743; assay: AF1 metabolite analysis (GC-MS, LC-MS) of yeast cells treated with antifungal drugs; format: cell-based
PSI, PROTOX = assay: PSI / PROTOX inhibition (unpublished data)
Arabidopsis thaliana [5] = assay: MOA1 phenotypic profiling of Arabidopsis sprayed with unknown and commercial herbicides; format: in vivo; conditions: in words

## CS(=O)(=O)c1cc(C(F)(F)F)ccc1C(=O)c1cnoc1C1CC1 [Isoxaflutole]
Arabidopsis thaliana [1]
  No. of Lethal Genes Altered: 15
Arabidopsis thaliana [2]
  tyrosine and phenylalanine relative to the control: up-regulated; also recorded: began to accumulate
Magnaporthe grisea; concentration insufficient to inhibit growth
  M. grisea growth in minimal media: unaffected
Magnaporthe grisea; concentration insufficient to inhibit growth (sub-inhibitory)
  M. grisea growth in minimal plus tyrosine (sole nitrogen source) media: inhibited

## COC(=O)c1cc(Oc2ccc(Cl)cc2Cl)ccc1[N+](=O)[O-] [Bifenox]
[3]
  characteristic symptoms (morphological phenotype): Necrotic leaf flecks

## c1cc[n+]2c(c1)-c1cccc[n+]1CC2 [Diquat]
[3]
  Symptom Class: 7
  characteristic symptoms (morphological phenotype): rapid and widespread leaf necrosis
  leafCurling (Dev.): 2
  leafTwisting (Dev.): 0
  leafWidth (Dev.): −2
  matureLeafAnthocyanins (Dev.): 0
  matureLeafChlorosis (Dev.): 1
  matureLeafNecrosis (Dev.): 4
  newLeafAnthocyanins (Dev.): 0
  newLeafChlorosis (Dev.): 1
  newLeafNecrosis (Dev.): 4
  pointedLeaves (Dev.): 1
  tMic (Dev.): 2

## O=C(O)c1ccccc1C(=O)Nc1cccc2ccccc12 [Naptalam]
Arabidopsis thaliana [1]
  gene expression perturbations compared to the other treatments: fewest gene expression perturbations
  No. of Lethal Genes Altered: 3

## CC[C@@H]([C@H](C)O)n1ncn(-c2ccc(N3CCN(c4ccc(OC[C@@H]5CO[C@@](Cn6cncn6)(c6ccc(F)cc6F)C5)cc4)CC3)cc2)c1=O [Posaconazole]
[4]; metabolite anthranilic acid, platform nLC
  Fold Change: 0
[4]; metabolite anthranilic acid, platform pLC
  Fold Change: 0
[4]; metabolite biotin, platform LC
  Fold Change: 0

## CCc1cnc(C2=NC(C)(C(C)C)C(=O)N2)c(C(=O)O)c1 (centres unmarked) [Imazethapyr]
[3]
  characteristic symptoms (morphological phenotype): anthocyanin accumulation in the older leaves accompanied by chlorosis of the newly emerging leaves

## COc1nc(C)nc(NC(=O)NS(=O)(=O)c2ccccc2Cl)n1 [Chlorsulfuron]
Arabidopsis thaliana [1]
  No. of Lethal Genes Altered: 8
[3]
  characteristic symptoms (morphological phenotype): anthocyanin accumulation in the older leaves accompanied by chlorosis of the newly emerging leaves

## O=C(O)c1cc(Oc2ccc(C(F)(F)F)cc2Cl)ccc1[N+](=O)[O-] [Acifluorfen]
[3]
  characteristic symptoms (morphological phenotype): Necrotic leaf flecks

## CC[C@@H]([C@H](C)O)n1ncn(-c2ccc(N3CCN(c4ccc(OC[C@@H]5CO[C@@](Cn6cncn6)(c6ccc(F)cc6F)C5)cc4)CC3)cc2)c1=O [Posaconazote]
[4]; detected metabolite, platform nLC, p-Value 1
  Fold Change, porphobilinogen: 0

## C[n+]1ccc(-c2cc[n+](C)cc2)cc1 [Paraquat]
[3]
  Symptom Class: 7
  characteristic symptoms (morphological phenotype): rapid and widespread leaf necrosis

## CCc1cccc(C)c1N(C(=O)CCl)C(C)COC (centres unmarked) [Metolachlor]
PSI, PROTOX
  PSI or PROTOX inhibitor: neither a PSI nor a PROTOX inhibitor

## CC[C@@H]([C@H](C)O)n1ncn(-c2ccc(N3CCN(c4ccc(OC[C@@H]5CO[C@@](Cn6cncn6)(c6ccc(F)cc6F)C5)cc4)CC3)cc2)c1=O [Posaconazoie]
[4]; metabolite luteolin, platform LC
  Fold Change: 0

## OC(Cn1cncn1)(Cn1cncn1)c1ccc(F)cc1F [Fluconazole]
[4]; LC
  Fold Change: abscisic acid: 0
  Fold Change: adenosine: 0

## CC(C)N1C(=O)c2ccccc2NS1(=O)=O [Bentazon]
[3]
  characteristic symptoms (morphological phenotype): rapid and widespread leaf necrosis

## CC(C)C1(C)N=C(c2ncccc2C(=O)O)NC1=O (centres unmarked) [Imazapyr]
[3]
  characteristic symptoms (morphological phenotype): anthocyanin accumulation in the older leaves accompanied by chlorosis of the newly emerging leaves

## CP(=O)(O)CCC(N)C(=O)O (centres unmarked) [Glufosinate]
Arabidopsis thaliana [1]
  No. of Lethal Genes Altered: 10
[3]
  Symptom Class: 3
  characteristic symptoms (morphological phenotype): Chlorosis and leaf curling
  leafCurling (Dev.): 2
  leafTwisting (Dev.): 1
  leafWidth (Dev.): −2
  matureLeafAnthocyanins (Dev.): 0
  matureLeafChlorosis (Dev.): 3
  matureLeafNecrosis (Dev.): 0
  newLeafAnthocyanins (Dev.): 0
  newLeafChlorosis (Dev.): 3
  newLeafNecrosis (Dev.): 0
  pointedLeaves (Dev.): 1
  tMic (Dev.): 1

## CSc1nnc(C(C)(C)C)c(=O)n1N [Metribuzin]
[3]
  characteristic symptoms (morphological phenotype): rapid and widespread leaf necrosis

## CC(C)OC(=O)Nc1cccc(Cl)c1 [Chloropropham]
Arabidopsis thaliana [5]
  phenotype / hierarchical cluster analysis of the eleven phenotypic characteristics: neither showed a strong herbicidal phenotype

## CCSC(=O)N(CC(C)C)CC(C)C [Butylate]
Arabidopsis thaliana [5]
  phenotype / hierarchical cluster analysis of the eleven phenotypic characteristics: neither showed a strong herbicidal phenotype

## CCNc1nc(Cl)nc(NC(C)C)n1 [Atrazine]
[3]
  characteristic symptoms (morphological phenotype): rapid and widespread leaf necrosis

## O=C(O)COc1ccc(Cl)cc1Cl [2,4-D]
[3]
  Symptom Class: 5
  leafCurling (Dev.): 1
  leafTwisting (Dev.): 2
  leafWidth (Dev.): −1
  matureLeafAnthocyanins (Dev.): 1
  matureLeafChlorosis (Dev.): 2
  matureLeafNecrosis (Dev.): 0
  newLeafAnthocyanins (Dev.): 0
  newLeafChlorosis (Dev.): 1
  newLeafNecrosis (Dev.): 0
  pointedLeaves (Dev.): 0
  tMic (Dev.): 2

## COC(=O)NS(=O)(=O)c1ccc(N)cc1 [Asulam]
Arabidopsis thaliana [1]
  gene expression perturbations compared to the other treatments: fewest gene expression perturbations
  No. of Lethal Genes Altered: 5

## O=C(O)CNCP(=O)(O)O [Glyphosate]
Arabidopsis thaliana [2]
  tyrosine (downstream metabolite) relative to the control: decreased
Magnaporthe grisea
  M. grisea growth with nitrate, nitrite, or glutamate as the sole nitrogen source: inhibited growth
Magnaporthe grisea; 250 μg/ml
  Growth of M. grisea with ammonium or glutamine as nitrogen source, Tier 4: Little growth defect
  M. grisea growth results for Tiers 3 and 4: nearly identical as compared to Unknown 4
Magnaporthe grisea; 1.0 mg/ml
  M. grisea growth inhibition, effect of aromatic amino acids in the media: remediated by inclusion of aromatic amino acids
[3]
  Symptom Class: 4
  characteristic symptoms (morphological phenotype): anthocyanin accumulation in the older leaves accompanied by chlorosis of the newly emerging leaves
  leafCurling (Dev.): 0
  leafTwisting (Dev.): 0
  leafWidth (Dev.): 0
  matureLeafAnthocyanins (Dev.): 3
  matureLeafChlorosis (Dev.): 1
  matureLeafNecrosis (Dev.): 3
  newLeafAnthocyanins (Dev.): 1
  newLeafChlorosis (Dev.): 2
  newLeafNecrosis (Dev.): 0
  pointedLeaves (Dev.): 1
  tMic (Dev.): 2

## Nc1nc[nH]n1 [Amitrole]
Arabidopsis thaliana [5]
  phenotype / hierarchical cluster analysis of the eleven phenotypic characteristics: exhibited chlorosis and not true bleaching
[3]
  characteristic symptoms (morphological phenotype): leaf bleaching and leaf enlargement

## CN(C)C(=O)Nc1ccc(Cl)c(Cl)c1 [Diuron]
[3]
  Symptom Class: 7
  characteristic symptoms (morphological phenotype): rapid and widespread leaf necrosis
  leafCurling (Dev.): 1
  leafTwisting (Dev.): 0
  leafWidth (Dev.): −2
  matureLeafAnthocyanins (Dev.): 0
  matureLeafChlorosis (Dev.): 2
  matureLeafNecrosis (Dev.): 4
  newLeafAnthocyanins (Dev.): 0
  newLeafChlorosis (Dev.): 2
  newLeafNecrosis (Dev.): 4
  pointedLeaves (Dev.): 1
  tMic (Dev.): 1
